Measured values from PubChem BioAssay (NCI).
“And” between values parts separate entries of the source, which are not always exact repeats. Equal entries are not always repeated.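 Cultured in 96-well plates, cells were exposed to test compound for 48 hours across five concentrations. At the GI50, growth is halved. TGI: concentration producing complete growth inhibition.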

Experiments:
Test in all cases: NCI tumour cell line growth inhibition, 48 h
UO-31 renal = test system: UO-31 renal
K-562 leukemia = test system: K-562 leukemia
EKVX NSCLC = test system: EKVX NSCLC
MOLT-4 leukemia = test system: MOLT-4 leukemia
OVCAR-3 ovarian = test system: OVCAR-3 ovarian
SF-268 CNS = test system: SF-268 CNS
T-47D breast = test system: T-47D breast
NCI-H460 lung = test system: NCI-H460 lung
SNB-75 CNS = test system: SNB-75 CNS
HCT-15 colon = test system: HCT-15 colon

SMILES | GI50 (UO-31 renal) | TGI (UO-31 renal) | GI50 (K-562 leukemia) | TGI (K-562 leukemia) | GI50 (EKVX NSCLC) | TGI (EKVX NSCLC) | GI50 (MOLT-4 leukemia) | TGI (MOLT-4 leukemia) | GI50 (OVCAR-3 ovarian) | TGI (OVCAR-3 ovarian) | GI50 (SF-268 CNS) | TGI (SF-268 CNS) | GI50 (T-47D breast) | TGI (T-47D breast) | GI50 (NCI-H460 lung) | TGI (NCI-H460 lung) | GI50 (SNB-75 CNS) | TGI (SNB-75 CNS) | GI50 (HCT-15 colon) | TGI (HCT-15 colon)
Clc1ccc(Nc2nnc(COc3ccccc3)c3ccccc23)cc1 | 0.727 µM | 5.2 µM | 1.85 µM | 11.9 µM | 0.679 µM | 7.32 µM | 1.06 µM | 6.7 µM | 2.87 µM | 9.8 µM | 2.23 µM | 12.9 µM | 0.881 µM | 8.44 µM | 2.7 µM | 7.12 µM | 0.498 µM | 6.65 µM | 2.05 µM | 6.75 µM
COc1cc(N2CCN(C(C)C)CC2)ccc1Nc1nc(Nc2ccc(F)cc2C(N)=O)c2cc[nH]c2n1 | 0.996 µM | 5.28 µM | 3.31 µM | 15.2 µM | 0.48 µM | 7.19 µM | 5.24 µM | 15.4 µM | 3.08 µM | 6.43 µM | 3.36 µM | 7.92 µM | 3.49 µM | 8.2 µM | 0.0985 µM | 3.72 µM | 3.04 µM | 6.32 µM | 0.387 µM | 8.16 µM
OCC1OC(N2CCN(C3OC(CO)C(O)C(O)C3O)CC2)C(O)C(O)C1O (stereo not given) | – | > 100 µM | – | > 100 µM | – | > 100 µM | – | > 100 µM | – | > 100 µM | – | > 100 µM | – | > 100 µM | – | > 100 µM | – | > 100 µM | – | > 100 µM
O=C(Nc1ccn(C2CCC(COC(c3ccccc3)(c3ccccc3)c3ccccc3)O2)c(=O)n1)c1ccccc1 (stereo not given) | – | 14.1 µM | – | 7.97 µM | – | 14.4 µM | – | 5.16 µM | – | 6.47 µM | – | 17.4 µM | – | 27.9 µM | – | 10.4 µM | – | 8.35 µM | – | 11.2 µM
C=C1CC2(CC(c3ccccc3C)OC(c3ccccc3C)C2)OC1=O (stereo not given) | – | 11.3 µM | – | 5.09 µM | – | 30.1 µM | – | 21.4 µM | – | 3.58 µM | – | 3.6 µM | – | 3.21 µM | – | 14.2 µM | – | 11.6 µM | – | 3.86 µM
NC(=O)C1CCCN1Cc1ccc2c(c1)OCO2 (stereo not given) | – | > 100 µM | – | > 100 µM | – | > 100 µM | – | > 100 µM | – | > 100 µM | – | > 100 µM | – | > 100 µM | – | > 100 µM | – | > 100 µM | – | > 100 µM
CCN(CC(O)COc1ccc2c(c1)[n+]([O-])nc(N)[n+]2[O-])C(C)=O (stereo not given) | – | > 100 µM | – | > 100 µM | – | > 100 µM | – | > 100 µM | – | > 100 µM | – | > 100 µM | – | > 100 µM | – | > 100 µM | – | > 100 µM | – | > 100 µM
CC(=O)OCc1cc[c]([Hg][Cl])o1 | 1.82 µM | 3.45 µM | 0.991 µM | 10.3 µM | 12.4 µM | 28.2 µM | 2.07 µM | 8.46 µM | 3.97 µM | 16.2 µM | 8.78 µM | 21.8 µM | 1.36 µM | 3.98 µM | 15.5 µM | 45.6 µM | 12.8 µM | 51.4 µM | 1.62 µM | 3.66 µM
C#Cc1cccc(NC(=O)C2CCCCN2C(=O)CCl)c1 (stereo not given) | 13.6 µM | 25.7 µM | 15.3 µM | > 82.5 µM | > 82.5 µM | > 82.5 µM | 12 µM | 52.9 µM | 10.1 µM | 22.2 µM | 21.1 µM | 75.2 µM | 16 µM | > 82.5 µM | 23.9 µM | > 82.5 µM | 17.9 µM | > 82.5 µM | 9.61 µM | 23.4 µM
CN1CCN(CCCn2c3c(sc4ncccc43)c(=O)n3nnc(-c4ccccc4)c23)CC1 | 0.802 µM | 2.42 µM | 0.593 µM | 1.56 µM | 2.08 µM | 5.58 µM | 0.889 µM | 2.86 µM | 1.81 µM | 3.42 µM | 1.68 µM | 3.32 µM | 20.2 µM | 39.4 µM | 1.65 µM | 3.37 µM | 9.85 µM | 23.4 µM | 1.87 µM | 4.3 µM
Cc1cc(C(=O)NOCCO)c(Nc2ccc(I)cc2F)n(C)c1=O | 0.0289 µM and < 0.045 µM | > 100 µM | 0.321 µM and 0.19 µM | > 100 µM | 0.0233 µM | > 10 µM | > 100 µM | > 100 µM | > 100 µM | > 100 µM | > 100 µM | > 100 µM | > 10 µM and 78.9 µM | > 100 µM | > 10 µM and 46.7 µM | > 100 µM | > 10 µM and 17.1 µM | > 100 µM | > 3.01 µM and 2.64 µM | > 100 µM
COc1cc2cc(C(=O)Nc3ccccc3)c(N)nc2cc1OC | 25.7 µM | > 100 µM | 41.7 µM | > 100 µM | 73.6 µM | > 100 µM | 38.5 µM | > 100 µM | 50.9 µM | > 100 µM | 81.8 µM | > 100 µM | 23.6 µM | > 100 µM | 73.9 µM | > 100 µM | 29.2 µM | > 100 µM | 31.3 µM | > 100 µM
COc1cc(/C=C/[N+](=O)[O-])cc(OC)c1 | 1.78 µM | 3.4 µM | 1.75 µM | 9.09 µM | 4.05 µM | 27.1 µM | 2.25 µM | 6.33 µM | 1.56 µM | 3.07 µM | 3.62 µM | 14.9 µM | 2.17 µM | 7.03 µM | 3.51 µM | 10.5 µM | 3.82 µM | 16.7 µM | 1.99 µM | 6.11 µM
